In ChEMBL document CHEMBL4387733, “Design, synthesis and biological evaluation of indane derived GPR40 agoPAMs” (Bioorg Med Chem Lett, 2019):
pEC50: −log10 of the molar value. Converted amounts (≈) assume the structure as drawn. The source made the active and inactive calls. The calls are words filed in the database; no cut-off is given here.

Legend:
[1] = Drug level in human hepatocytes treated with (2S,3R)-3-cyclopropyl-3-(3-((R)-5-(2-fluoro-5-methoxyphenyl)-2,3-dihydro-1H-inden-1-yloxy)phenyl)-2-methylpropanoic acid at 5 uM measured after 2 hrs; format: ADME, cell-based, Hepatocyte
[2] = Stability of the compound in pH 7.4 potassium phosphate buffer at 10 uM measured after 5 hrs; format: physicochemical; conditions: pH 7.4, 5 h
[3] = molecular target: Beta-3 adrenergic receptor (Homo sapiens) (UniProt P13945); assay: Inhibition of human beta3 adrenergic receptor at 10 uM relative to control
Beta-3 adrenergic receptor (Homo sapiens), sequence (P13945 whole entry, looked up): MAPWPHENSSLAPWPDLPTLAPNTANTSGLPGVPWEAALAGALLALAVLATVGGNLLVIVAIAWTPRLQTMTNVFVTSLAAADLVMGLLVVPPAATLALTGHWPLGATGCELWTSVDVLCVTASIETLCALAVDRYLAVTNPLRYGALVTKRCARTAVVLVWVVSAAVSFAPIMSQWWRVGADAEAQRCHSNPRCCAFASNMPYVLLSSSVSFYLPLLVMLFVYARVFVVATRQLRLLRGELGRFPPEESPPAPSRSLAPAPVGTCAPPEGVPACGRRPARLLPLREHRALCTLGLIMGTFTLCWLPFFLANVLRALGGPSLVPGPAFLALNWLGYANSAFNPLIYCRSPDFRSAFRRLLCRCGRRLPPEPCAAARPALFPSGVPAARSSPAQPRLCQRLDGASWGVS

[4] = test system: Rattus norvegicus; assay: Hypoglycemic activity in Sprague-Dawley rat assessed as reduction in blood glucose AUC at 3 mg/kg, po pretreated for 1 hr followed by glucose challenge by OGTT relative to control; format: functional; design: scale not given: the % may be the effect or the level left
[5] = test system: Rattus norvegicus; assay: Hypoglycemic activity in Sprague-Dawley rat assessed as reduction in blood glucose AUC at 30 mg/kg, po pretreated for 1 hr followed by glucose challenge by OGTT relative to control; format: functional; design: scale not given: the % may be the effect or the level left
[6] = Total drug level in Wistar Han rat plasma at 1 mg/kg, iv or 2 mg/kg, po measured at 3 hrs; format: ADME, organism-based
[7] = Protein binding in rat plasma assessed as unbound fraction at 1 mg/kg, po; format: ADME, organism-based; conditions: in vivo
[8] = Total drug level in rat plasma at 10 mg/kg, po; format: ADME, organism-based; conditions: in vivo
[9] = molecular target: Cysteinyl leukotriene receptor 2 (Homo sapiens) (UniProt Q9NS75); assay: Displacement of [3H]LTD4 from human full-length recombinant cysteinyl leukotriene type-2 receptor expressed in HEK293 cells at 10 uM measured after 60 mins by scintillation counting method relative to control; format: cell-based
Cysteinyl leukotriene receptor 2 (Homo sapiens), sequence (Q9NS75 whole entry): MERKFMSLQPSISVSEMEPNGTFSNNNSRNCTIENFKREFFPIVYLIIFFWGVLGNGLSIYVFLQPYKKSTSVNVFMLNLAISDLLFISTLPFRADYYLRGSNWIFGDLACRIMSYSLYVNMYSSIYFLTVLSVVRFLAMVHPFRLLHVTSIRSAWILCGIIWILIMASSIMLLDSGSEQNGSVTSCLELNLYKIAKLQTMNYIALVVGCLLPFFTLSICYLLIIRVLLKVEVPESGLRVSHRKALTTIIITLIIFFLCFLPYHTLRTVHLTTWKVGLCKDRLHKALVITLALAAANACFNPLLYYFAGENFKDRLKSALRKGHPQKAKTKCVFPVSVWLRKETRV

[10] = Drug level in Wistar Han rat assessed as unbound fraction at 1 mg/kg, iv or 2 mg/kg, po; format: ADME, organism-based; conditions: in vivo
[11] = Protein binding in rat plasma assessed as unbound fraction at 10 mg/kg, po; format: ADME, organism-based; conditions: in vivo
[12] = Solubility of the compound in FASSIF; format: physicochemical
[13] = Protein binding in rat plasma assessed as unbound fraction at 0.3 mg/kg, po; format: ADME, organism-based; conditions: in vivo
[14] = Half-life in Wistar Han rat at 1 mg/kg, iv or 2 mg/kg, po; format: ADME, organism-based; conditions: in vivo
[15] = molecular target: T1, Free fatty acid receptor 1 (Homo sapiens, UniProt O14842); assay: Positive allosteric modulation of recombinant human GPR40 expressed in HEK293 cells assessed as increase in [3H]-myo-inositol phosphate accumulation measured after 60 mins in presence of 100% human serum by microbeta counting method; format: functional, cell-based
T1 sequence (O14842 whole entry): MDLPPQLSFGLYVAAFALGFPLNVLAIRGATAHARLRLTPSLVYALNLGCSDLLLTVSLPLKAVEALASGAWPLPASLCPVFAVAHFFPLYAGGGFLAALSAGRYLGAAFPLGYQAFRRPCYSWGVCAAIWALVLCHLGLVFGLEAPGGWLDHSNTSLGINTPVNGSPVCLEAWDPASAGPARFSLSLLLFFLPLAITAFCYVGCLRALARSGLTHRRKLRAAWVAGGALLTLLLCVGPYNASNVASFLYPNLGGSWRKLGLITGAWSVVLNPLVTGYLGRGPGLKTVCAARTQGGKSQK

[16] = Oral bioavailability in Wistar Han rat at 2 mg/kg; format: ADME, organism-based; conditions: in vivo
[17] = test system: Rattus norvegicus; assay: Hypoglycemic activity in Sprague-Dawley rat assessed as reduction in blood glucose AUC at 10 mg/kg, po pretreated for 1 hr followed by glucose challenge by OGTT relative to control; format: functional; design: scale not given: the % may be the effect or the level left
[18] = Drug level in rat plasma at 650 mg/kg; format: ADME, organism-based; conditions: in vivo
[19] = Volume of distribution in Wistar Han rat at 1 mg/kg, iv or 2 mg/kg, po; format: ADME, organism-based; conditions: in vivo
[20] = Clearance in Wistar Han rat at 1 mg/kg, iv or 2 mg/kg, po; format: ADME, organism-based; conditions: in vivo
[21] = molecular target: Sodium-dependent noradrenaline transporter (Homo sapiens) (UniProt P23975); assay: Inhibition of human sodium dependent noradrenaline transporter at 10 uM relative to control
Sodium-dependent noradrenaline transporter (Homo sapiens), sequence (P23975 whole entry): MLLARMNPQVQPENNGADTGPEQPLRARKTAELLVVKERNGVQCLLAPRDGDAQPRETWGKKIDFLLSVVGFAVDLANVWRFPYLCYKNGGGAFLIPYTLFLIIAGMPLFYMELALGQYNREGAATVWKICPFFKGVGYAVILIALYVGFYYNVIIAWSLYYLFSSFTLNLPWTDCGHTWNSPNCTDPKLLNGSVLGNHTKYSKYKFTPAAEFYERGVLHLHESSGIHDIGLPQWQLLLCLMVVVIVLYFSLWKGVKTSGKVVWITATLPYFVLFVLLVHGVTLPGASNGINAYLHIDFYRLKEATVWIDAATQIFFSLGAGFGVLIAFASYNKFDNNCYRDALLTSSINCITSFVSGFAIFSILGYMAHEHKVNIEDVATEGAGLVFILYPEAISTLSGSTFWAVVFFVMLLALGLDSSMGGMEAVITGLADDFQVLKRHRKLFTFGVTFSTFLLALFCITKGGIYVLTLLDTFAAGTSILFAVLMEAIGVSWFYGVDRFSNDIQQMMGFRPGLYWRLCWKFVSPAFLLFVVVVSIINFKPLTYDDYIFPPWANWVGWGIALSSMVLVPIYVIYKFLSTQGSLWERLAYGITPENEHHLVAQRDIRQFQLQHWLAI

[22] = Toxicity in rat at 100 mg/kg administered for 4 days; format: organism-based; conditions: in vivo, 96 h
[23] = Drug level in rat plasma at 100 mg/kg; format: ADME, organism-based; conditions: in vivo
[24] = Total drug level in rat plasma at 3 mg/kg, po; format: ADME, organism-based; conditions: in vivo
[25] = test system: Rattus norvegicus; assay: Hypoglycemic activity in Sprague-Dawley rat assessed as reduction in blood glucose AUC at 3 mg/kg, ip measured after 3 hrs by IPGTT relative to control; format: functional
[26] = molecular target: Acetylcholinesterase (Homo sapiens) (UniProt P22303); assay: Inhibition of human recombinant full length acetylcholine esterase expressed in HEK293 cells at 10 uM using acetylcholine as substrate preincubated for 15 mins followed by substrate addition measured after 20 mins by spectrophotometric analysis
[27] = species: Mus musculus; assay: Glucose lowering effect in mouse assessed as increase in GLP-1 level; format: functional, organism-based
[28] = Protein binding in rat plasma assessed as unbound fraction at 30 mg/kg, po; format: ADME, organism-based; conditions: in vivo
[29] = molecular target: T1, Free fatty acid receptor 1; assay: Positive allosteric modulation of recombinant human GPR40 expressed in HEK293 cells assessed as increase in [3H]-myo-inositol phosphate accumulation measured after 60 mins in presence of 100% human serum by microbeta counting method relative to control; format: functional, cell-based
[30] = Drug metabolism in human hepatocytes assessed as (2S,3S,4S,5R)-6-((2S,3R)-3-cyclopropyl-3-(3-((R)-5-(2-fluoro-5-methoxyphenyl)-2,3-dihydro-1H-inden-1-yloxy)phenyl)-2-methylpropanoyloxy)-3,4,5-trihydroxytetrahydro-2H-pyran-2-carboxylic acid formation at 5 uM measured after 2 hrs; format: ADME, cell-based, Hepatocyte
[31] = molecular target: Peroxisome proliferator-activated receptor gamma (Homo sapiens) (UniProt P37231); assay: Inhibition of human PPARG at 10 uM relative to control
Peroxisome proliferator-activated receptor gamma (Homo sapiens), sequence (P37231 whole entry): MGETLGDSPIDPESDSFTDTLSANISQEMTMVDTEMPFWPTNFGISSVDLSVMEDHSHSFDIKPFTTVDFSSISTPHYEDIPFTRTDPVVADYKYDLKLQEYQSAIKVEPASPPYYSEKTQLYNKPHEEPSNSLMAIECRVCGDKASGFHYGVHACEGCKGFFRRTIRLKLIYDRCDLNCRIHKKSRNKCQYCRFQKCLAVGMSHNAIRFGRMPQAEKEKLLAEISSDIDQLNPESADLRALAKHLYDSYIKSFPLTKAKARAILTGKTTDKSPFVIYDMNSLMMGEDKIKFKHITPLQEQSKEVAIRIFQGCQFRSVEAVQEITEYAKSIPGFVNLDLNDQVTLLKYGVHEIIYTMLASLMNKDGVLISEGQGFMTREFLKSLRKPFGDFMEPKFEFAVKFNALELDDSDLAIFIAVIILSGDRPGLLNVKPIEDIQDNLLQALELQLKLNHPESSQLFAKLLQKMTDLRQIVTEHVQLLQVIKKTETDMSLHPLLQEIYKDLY

[32] = Protein binding in human plasma assessed as unbound fraction level; format: ADME, cell-free
[33] = Toxicity in rat assessed as change in clinical pathology at 600 mg/kg administered for 4 days; format: organism-based; conditions: in vivo, 96 h
[34] = molecular target: Prostaglandin E2 receptor EP1 subtype (Homo sapiens) (UniProt P34995); assay: Inhibition of human prostanoid EP1 receptor at 10 uM relative to control
Prostaglandin E2 receptor EP1 subtype (Homo sapiens), sequence (P34995 whole entry): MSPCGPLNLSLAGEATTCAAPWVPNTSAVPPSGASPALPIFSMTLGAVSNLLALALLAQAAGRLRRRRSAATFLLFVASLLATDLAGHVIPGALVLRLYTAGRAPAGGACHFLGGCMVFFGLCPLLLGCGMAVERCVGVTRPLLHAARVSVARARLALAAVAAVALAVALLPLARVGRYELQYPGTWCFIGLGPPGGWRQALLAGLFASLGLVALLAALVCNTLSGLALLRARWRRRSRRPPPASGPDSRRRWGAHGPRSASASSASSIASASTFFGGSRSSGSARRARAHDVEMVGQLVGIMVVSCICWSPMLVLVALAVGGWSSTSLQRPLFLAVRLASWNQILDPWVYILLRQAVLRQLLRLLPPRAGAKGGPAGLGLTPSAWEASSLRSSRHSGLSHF

[35] = test system: Rattus norvegicus; assay: Hypoglycemic activity in Sprague-Dawley rat assessed as reduction in blood glucose AUC at 0.3 mg/kg, po pretreated for 1 hr followed by glucose challenge by OGTT relative to control; format: functional; design: scale not given: the % may be the effect or the level left
[36] = Total drug level in rat plasma at 1 mg/kg, po; format: ADME, organism-based; conditions: in vivo
[37] = Unbound drug level in Wistar Han rat plasma at 1 mg/kg, iv or 2 mg/kg, po measured at 3 hrs; format: ADME, organism-based; conditions: in vivo
[38] = Ratio of compound effect for protein binding in rat plasma assessed as unbound fraction at 10 mg/kg, po to fEC50 for positive allosteric modulation of recombinant human GPR40 expressed in HEK293 cells in presence of 100% human serum
[39] = molecular target: T1, Free fatty acid receptor 1; assay: Positive allosteric modulation of recombinant human GPR40 expressed in HEK293 cells assessed as increase in [3H]-myo-inositol phosphate accumulation measured after 60 mins in absence of human serum by microbeta counting method; format: functional, cell-based
[40] = Protein binding in rat plasma assessed as unbound fraction at 3 mg/kg, po; format: ADME, organism-based; conditions: in vivo
[41] = Toxicity in rat assessed as change in body weight at 600 mg/kg administered for 4 days; format: organism-based; conditions: in vivo, 96 h
[42] = Total drug level in rat plasma at 0.3 mg/kg, po; format: ADME, organism-based; conditions: in vivo
[43] = Total drug level in rat plasma at 30 mg/kg, po; format: ADME, organism-based; conditions: in vivo
[44] = Cmax in Wistar Han rat at 1 mg/kg, iv or 2 mg/kg, po; format: ADME, organism-based; conditions: in vivo
[45] = molecular target: Prostaglandin E2 receptor EP3 subtype (Homo sapiens) (UniProt P43115); assay: Inhibition of human prostanoid EP3 receptor at 10 uM relative to control
Prostaglandin E2 receptor EP3 subtype (Homo sapiens), sequence (P43115 whole entry): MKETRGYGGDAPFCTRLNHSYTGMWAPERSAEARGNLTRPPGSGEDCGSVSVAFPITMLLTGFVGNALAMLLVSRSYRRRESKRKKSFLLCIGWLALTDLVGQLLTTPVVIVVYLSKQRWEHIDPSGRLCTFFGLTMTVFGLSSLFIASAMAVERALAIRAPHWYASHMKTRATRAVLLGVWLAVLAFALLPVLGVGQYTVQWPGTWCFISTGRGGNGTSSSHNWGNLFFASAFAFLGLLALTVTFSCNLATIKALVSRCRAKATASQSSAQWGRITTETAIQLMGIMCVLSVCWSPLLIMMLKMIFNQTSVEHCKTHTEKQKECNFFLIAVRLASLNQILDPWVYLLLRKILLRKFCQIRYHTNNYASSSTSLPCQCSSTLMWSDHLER

[46] = Dose normalized AUC in Wistar Han rat at 2 mg/kg, po; format: ADME, organism-based; conditions: in vivo
[47] = test system: Rattus norvegicus; assay: Hypoglycemic activity in Sprague-Dawley rat assessed as reduction in blood glucose AUC at 1 mg/kg, po pretreated for 1 hr followed by glucose challenge by OGTT relative to control; format: functional; design: scale not given: the % may be the effect or the level left
[48] = Drug metabolism in rat hepatocytes assessed as (2S,3R)-3-cyclopropyl-3-(3-((R)-5-(2-fluoro-5-(sulfooxy)phenyl)-2,3-dihydro-1H-inden-1-yloxy)phenyl)-2-methylpropanoic acid formation at 5 uM measured after 2 hrs; format: ADME, cell-based, Hepatocyte
[49] = molecular target: Histamine H1 receptor (Homo sapiens) (UniProt P35367); assay: Inhibition of human histamine H1 receptor at 10 uM relative to control
Histamine H1 receptor (Homo sapiens), sequence (P35367 whole entry): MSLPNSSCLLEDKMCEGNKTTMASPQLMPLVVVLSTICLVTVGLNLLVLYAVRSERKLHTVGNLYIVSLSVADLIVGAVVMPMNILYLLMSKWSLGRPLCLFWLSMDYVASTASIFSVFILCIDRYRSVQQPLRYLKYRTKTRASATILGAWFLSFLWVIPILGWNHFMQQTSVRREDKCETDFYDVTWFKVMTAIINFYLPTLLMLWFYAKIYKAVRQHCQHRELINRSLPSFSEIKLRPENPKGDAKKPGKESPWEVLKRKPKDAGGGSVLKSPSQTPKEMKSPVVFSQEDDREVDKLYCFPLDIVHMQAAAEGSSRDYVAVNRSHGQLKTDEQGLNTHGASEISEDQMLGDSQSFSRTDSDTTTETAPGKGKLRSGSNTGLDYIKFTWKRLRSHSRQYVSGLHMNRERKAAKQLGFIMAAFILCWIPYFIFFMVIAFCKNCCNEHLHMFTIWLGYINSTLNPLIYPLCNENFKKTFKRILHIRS

[50] = molecular target: Prostacyclin receptor (Homo sapiens) (UniProt P43119); assay: Inhibition of human prostanoid IP receptor at 10 uM relative to control
Prostacyclin receptor (Homo sapiens), sequence (P43119 whole entry): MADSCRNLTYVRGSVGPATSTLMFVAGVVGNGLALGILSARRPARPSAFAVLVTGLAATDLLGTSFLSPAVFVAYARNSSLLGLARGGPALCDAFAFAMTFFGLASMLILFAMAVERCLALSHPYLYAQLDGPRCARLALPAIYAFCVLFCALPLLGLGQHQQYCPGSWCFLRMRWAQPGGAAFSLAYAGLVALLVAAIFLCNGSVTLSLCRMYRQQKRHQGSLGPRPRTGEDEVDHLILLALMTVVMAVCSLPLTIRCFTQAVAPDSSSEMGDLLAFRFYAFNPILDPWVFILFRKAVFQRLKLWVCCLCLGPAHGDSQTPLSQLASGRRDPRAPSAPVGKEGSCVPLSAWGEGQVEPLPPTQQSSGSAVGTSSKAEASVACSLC

[51] = Ratio of compound effect for protein binding in rat plasma assessed as unbound fraction at 30 mg/kg, po to fEC50 for positive allosteric modulation of recombinant human GPR40 expressed in HEK293 cells in presence of 100% human serum
[52] = molecular target: Sodium-dependent dopamine transporter (Homo sapiens) (UniProt Q01959); assay: Inhibition of human sodium dependent dopamine transporter at 10 uM relative to control
Sodium-dependent dopamine transporter (Homo sapiens), sequence (Q01959 whole entry): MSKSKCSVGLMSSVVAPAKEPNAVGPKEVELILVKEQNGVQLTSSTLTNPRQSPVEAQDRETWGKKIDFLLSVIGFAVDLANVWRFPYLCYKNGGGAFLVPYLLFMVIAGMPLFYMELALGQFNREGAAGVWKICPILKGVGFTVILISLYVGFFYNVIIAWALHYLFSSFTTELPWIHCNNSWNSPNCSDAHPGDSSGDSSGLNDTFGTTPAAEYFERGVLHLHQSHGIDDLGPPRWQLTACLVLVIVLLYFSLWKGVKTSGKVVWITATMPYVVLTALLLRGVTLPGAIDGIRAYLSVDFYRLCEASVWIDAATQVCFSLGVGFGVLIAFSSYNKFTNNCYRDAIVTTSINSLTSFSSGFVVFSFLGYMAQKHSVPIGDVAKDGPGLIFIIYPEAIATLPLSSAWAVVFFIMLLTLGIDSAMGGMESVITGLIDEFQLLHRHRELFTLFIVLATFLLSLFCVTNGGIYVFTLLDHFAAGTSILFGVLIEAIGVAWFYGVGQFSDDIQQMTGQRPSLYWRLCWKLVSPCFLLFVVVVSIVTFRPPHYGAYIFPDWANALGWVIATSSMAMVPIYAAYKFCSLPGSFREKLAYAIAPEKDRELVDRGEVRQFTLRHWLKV

[53] = molecular target: T1, Free fatty acid receptor 1; assay: Positive allosteric modulation of recombinant human GPR40 expressed in HEK293 cells assessed as increase in [3H]-myo-inositol phosphate accumulation measured after 60 mins in absence of human serum by microbeta counting method relative to control; format: functional, cell-based; design: concentration or dose not given beside the values
[54] = Drug level in rat hepatocytes treated with (2S,3R)-3-cyclopropyl-3-(3-((R)-5-(2-fluoro-5-methoxyphenyl)-2,3-dihydro-1H-inden-1-yloxy)phenyl)-2-methylpropanoic acid at 5 uM measured after 2 hrs; format: ADME, cell-based, Hepatocyte

Structure (SMILES): C[C@H](C(=O)OC1O[C@H](C(=O)O)[C@@H](O)[C@H](O)[C@H]1O)[C@H](c1cccc(O[C@@H]2CCc3cc(-c4cc(O)ccc4F)ccc32)c1)C1CC1 (stereo not given in full)
- Drug metabolism [1]: Metabolite_Detected
- Stability [2]: Stable

Structure (SMILES): COc1ccc(F)c(-c2ccc3c(c2)CC[C@H]3Oc2cccc([C@H](C3CC3)[C@H](C)C(=O)O)c2)c1
- inhibition [3]: 55%
- Activity [4]: 82%
- Activity [5]: 114%
- concentration at 3 h [6]: 1600 nM
- Cp(f) [7]: 0.069 nM
- concentration [8]: 7610 nM
- inhibition [9]: 71%
- Fu [10]: 0.01%
- Cp(f) [11]: 0.76 nM
- solubility [12]: 153 µM (≈ 70.5 µg/mL)
- Cp(f) [13]: 0.02 nM
- half-life [14]: 1.8 h
- pEC50 [15]: 6.41
- fEC50 [15]: 0.04 nM
- bioavailability [16]: 81%
- Activity [17]: 105%
- concentration [18]: 1900 nM
- Vd [19]: 0.33 L/kg
- clearance [20]: 2.8 mL/min/kg
- inhibition [21]: 69%
- Activity [22]: Non-Toxic
- concentration [23]: 1240 nM
- concentration [24]: 4470 nM
- inhibition in vivo at 3 mg/kg [25]: 71%
- inhibition [26]: 52%
- Activity [27]: Active
- Cp(f) [28]: 1.73 nM
- Activity [29]: 205%
- Drug metabolism [30]: Metabolite_Detected
- inhibition [31]: 87%
- Fu [32]: 0.01%
- Activity [33]: Toxic
- inhibition [34]: 81%
- Activity [35]: 19%
- concentration [36]: 689 nM
- Cp(f) [37]: 0.16 nM
- Ratio [38]: 19
- pEC50 [39]: 8.35
- Cp(f) [40]: 0.45 nM
- Activity [41]: Toxic
- concentration [42]: 207 nM
- concentration [43]: 17300 nM
- Cmax [44]: 2900 nM
- inhibition [45]: 80%
- AUC/dose [46]: 21.5 µM·h
- Activity [47]: 40%
- Drug metabolism [48]: Metabolite_Detected
- inhibition [49]: 70%
- inhibition [50]: 68%
- Ratio [51]: 42
- inhibition [52]: 89%
- Activity [53]: 323%

Structure (SMILES): C[C@H](C(=O)O)[C@H](c1cccc(O[C@@H]2CCc3cc(-c4cc(OS(=O)(=O)O)ccc4F)ccc32)c1)C1CC1
- Drug metabolism [54]: Metabolite_Detected
